# Experimental data: the supplement of paper PMC10307832
# Columns and labels:
# [1] = compound: COC1=CC=C(C=C1)CN2C=CC3=C2C=C(C=C3)C(=O)NO + COc1cc2c(Oc3ccc(NC(=O)C4(C(=O)Nc5ccc(F)cc5)CC4)cc3F)ccnc2cc1OCCCN1CCOCC1 [Foretinib] (partner 0.25 µM); experiment: relative viability (nuclei count vs DMSO), 5 days (fraction); higher = more cells survive
# In short: (§1)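 Medians of duplicate plates are given as relative viability. That measure is the nuclei count in treated wells divided by the count in vehicle wells. Counts were taken on 4× images of lung cancer cell lines in 1536-well plates, 5 days after pin-tool dosing the day after seeding with one drug alone or a fixed anchor-drug dose plus five library-drug doses (not always all listed) in √10 steps.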
# [2] = compound: C[C@]1(c2nc3c(C(N)=O)cccc3[nH]2)CCCN1 [Veliparib] + Cc1cc(Nc2cc(N3CCN(C)CC3)nc(Sc3ccc(NC(=O)C4CC4)cc3)n2)n[nH]1 [Tozasertib] (partner 0.1 µM); experiment: as above
# In short: as §1
Cell Line,relative viability ([1]; first compound 0.08 µM),relative viability ([1]; first compound 0.253 µM),relative viability ([1]; first compound 0.8 µM),relative viability ([1]; first compound 2.53 µM),relative viability ([1]; first compound 8 µM),relative viability ([2]; first compound 0.02 µM),relative viability ([2]; first compound 0.06325 µM),relative viability ([2]; first compound 0.2 µM),relative viability ([2]; first compound 0.6325 µM),relative viability ([2]; first compound 2 µM)
LCLC-97TM1,0.444,0.992,0.96,0.942,0.923,0.231,0.237,0.204,0.197,0.253
HOP-62,0.74,1.14,1.08,1.01,1.1,0.327,0.382,0.419,0.328,0.39
NCI-H1915,1.07,1.1,1.15,1.07,1.09,0.402,0.426,0.413,0.409,0.394
CAL-12T,0.918,1,1.2,1.06,1,0.317,0.376,0.327,0.318,0.369
NCI-H1437,1.05,1.21,1.22,1.34,1.27,0.384,0.438,0.43,0.406,0.399
UMC-11,,1.21,1.02,1.05,1,0.234,0.223,0.231,0.213,0.212
